From BindingDB's records for doi:10.7270/Q24J0CNF (Chevron Chemical, 1990)

Target: Glutamine synthetase (Homo sapiens, UniProt P15104)
Experiment: Enzyme Assay
Conditions: pH 7
Description: The enzyme was assayed at pH 7.0 using the pyruvate kinase/lactate dehydroenase coupling system.

Sequence of Glutamine synthetase (P15104 whole entry): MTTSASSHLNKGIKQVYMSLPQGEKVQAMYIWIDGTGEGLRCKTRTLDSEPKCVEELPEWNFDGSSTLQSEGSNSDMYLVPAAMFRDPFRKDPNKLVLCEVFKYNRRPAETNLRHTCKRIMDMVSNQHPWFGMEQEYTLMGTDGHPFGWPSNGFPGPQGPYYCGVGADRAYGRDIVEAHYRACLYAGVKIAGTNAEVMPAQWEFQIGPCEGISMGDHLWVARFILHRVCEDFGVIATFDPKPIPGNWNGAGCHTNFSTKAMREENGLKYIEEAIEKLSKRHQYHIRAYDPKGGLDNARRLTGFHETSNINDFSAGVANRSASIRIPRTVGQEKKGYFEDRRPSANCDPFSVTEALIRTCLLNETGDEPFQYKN

Work on `CP(=O)(O)CCC(N)C(=O)O` (stereo not drawn) [Phosphinothricin analog, 1 (L Isomer)] yielded a Ki of 0.22 nM.
In the case of `CC(CC(N)C(=O)O)P(C)(=O)O` (configuration not stated) [Phosphinothricin analog, 2 (D,L mixture)], the Ki is reported as 140 nM.
